Measured values from paper PMC10878532, “Sperm Toolbox—A selection of small molecules to study human spermatozoa” (PLOS ONE, 2024).

Experiments:
human spermatozoa [1] = experiment: Motility assay (non-capacitating conditions); format: cell-based
Description: (§1) To compare the effects of STB compounds on specific sperm functions (e.g. motility, acrosome reaction, viability), we screened them in multiple phenotypic functional assays described below. Each sperm function assay has been repeated in multiple donor pools (see Materials and methods), where each pool consists of cells donated from at least 3 different donors to address donor to donor variability. Each compound has been tested at two concentrations, 10 and 30 μM, and normalized to vehicle controls (DMSO, see Materials and methods). We have modified our assays from the previously published workflow by increasing incubation time and introducing conditions that support capacitation, which is a sperm maturation process required for fertilization. These changes expand the range of targets that we can explore in our assays. Our live-sperm-based high-throughput motility assays use an automated microscope to record short timelapse movies. These assays can be run in different protocols (S1 Fig). […] In this protocol, cells are incubated with compounds for 10 min prior to the first motility read-out. A second and third motility read-out were performed after 3h and 6h incubation. The second protocol, denoted ‘capacitation assay’, utilises conditions that support capacitation (S1 Fig). In this protocol, cells are kept in conditions supporting capacitation for 30 minutes prior to 30 minutes incubation with compound, followed by motility read-out. Both protocols allow sperm motility to be measured (0.5 sec time-lapse movies allow tracking of cells and calculation of sperm kinematics). In addition, the capacitation assay also scores hyperactivation (i.e. distinct movement patterns concomitant with capacitation which are crucial for fertilization) (Fig 2A).
Cells were rested for 1 h post density gradient centrifugation. 10 μL assay buffer was dispensed into assay ready plates, plates were put onto a shaker instrument for 30 seconds using 1,000 rpm, followed by a short pulse centrifugation. Plates were incubated for 15–30 mins at 37°C prior to addition of 10 μL of pooled cells (at 1 M/mL concentration). Plates were then incubated in a Yokogawa CV7000 microscope set at 37°C for 10 min prior to imaging. Imaging a 384-well plate requires ≤ 20 min using the following settings: 2 positions per well, 0.5 sec timelapse movies (3x binning; 11 ms exposure time, 22 ms interval time, […]). A second and a third timepoint was recorded after 3 h, and 6 h incubation at 37°C. Data has been processed as described in [8]. Assay results are from 5 separate donor pools.
(§2) For cell painting imaging data, plates of images were imported into OMERO [70]. Cell segmentation and feature extraction were performed using CellProfiler 3 [71] and using instructions from to normalize data. Timelapse data of motility assays was processed as previously described. Acrosome flow cytometry data was processed using NovoCyte Express (PerkinElmer), to gate out background debris, select for single cells and calculate percentage values of acrosome positive events. Sperm viability flow cytometry data was processed using iQue Forecyt (Satorius) to gate out background debris, select for single cells and calculate percentage values of propidium iodide positive events. For all sperm functional assays, data was normalized to DMSO control wells. Each plate had 16 DMSO wells. A median value of all 16 wells was used to calculated percentage change (pct_ch = ((value / DMSO_median) -1) * 100). For sperm viability we calculated fold-change (fc = 1 − (value / DMSO_median)). For each compound we calculated a p-value using a Welch’s t-test implemented in scipy (scipy.stats.ttest_ind) comparing a compounds effect to DMSO controls.

spermatozoa = system: spermatozoa; set-up: method as in per compound as listed in column References of Table 1; conditions: summaries of reported effects; ref per compound as listed in Table 1; cited from earlier work
[2] = system: Testis-Specific Serine/Threonine Kinase 2 (TSSK2); set-up: method as in PMID 28952188; conditions: described as; cited from earlier work
human spermatozoa [3] = experiment: Acrosome assay, protocol 1 (3h incubation with compound, no agonist; flow cytometry, PNA); format: cell-based; conditions: 3h with compound, no agonist addition
Description: The acrosome assays utilize a high-throughput flow cytometer (S1 Fig) to score for compounds inducing the acrosome reaction, using peanut agglutinin conjugated to a fluorescent dye to label the outer acrosomal membrane. We have developed two different screening protocols, named ‘acrosome 1’ and ‘acrosome 2’ (S1 Fig). […] This addition allowed measurement of inhibition of acrosome reaction (Fig 2B).
(§3) In both experimental protocols, 20 μL of pooled cells (at 1 M/mL concentration) were capacitated for 3 h in presence of compounds at 37°C and 5% CO2. In protocol a, cells were then stained with PNA-Alexa647 (ThermoFisher, 1 mg/mL, final dilution 1:1000) and Hoechst dye for 30 min at 37°C and 5% CO2, followed by 10 min fixation at RT by adding 20 μL of 4% paraformaldehyde (Sigma) in PBS. In mode b, a cocktail of progesterone, prostaglandin A and NH4Cl was added to all compound wells and incubated for an additional 1 h at 37°C and 5% CO2 to induce acrosome reaction. This was followed by fixation and staining protocol as for mode a. In both protocols fixatives and stains were removed and cells were resuspended in PBS, using a 405 platewasher. Plates were then measured on a Novocyte Advanteon high-throughput flow cytometer. Gating of data has been performed using the flow cytometer software to export counts of gated populations. The Acrosome 1 protocol using 3h incubation with compounds was run in 7 separate donor pools. The Acrosome 2 protocol using 3h incubation with compound followed by 1h stimulation of acrosome reaction was run in 5 separate donor pools.
as §2

human spermatozoa [4] = experiment: Acrosome assay, protocol 2 (3h with compound, then 1h agonist cocktail); format: cell-based; conditions: cluster in Fig 3A; 3h with compound then agonist mix
Description: The acrosome assays utilize a high-throughput flow cytometer (S1 Fig) to score for compounds inducing the acrosome reaction, using peanut agglutinin conjugated to a fluorescent dye to label the outer acrosomal membrane. We have developed two different screening protocols, named ‘acrosome 1’ and ‘acrosome 2’ (S1 Fig). Both protocols are capable of measuring induction of the acrosome reaction upon compound incubation. However, in the acrosome 2 assay, a mixture of physiological agonists of the acrosome reaction is used after cells have been incubated with compounds for 3h under conditions that support capacitation. This addition allowed measurement of inhibition of acrosome reaction (Fig 2B).
as §3
as §2, with “Sperm viability flow cytometry data was processed using iQue Forecyt (Satorius) to gate out background debris, select for single cells and calculate percentage values of propidium iodide positive events. For all sperm functional assays, data was normalized to DMSO control wells. Each plate had 16 DMSO wells.” left out

human spermatozoa [5] = experiment: Capacitation assay (motility and hyperactivation under capacitating conditions); format: cell-based; conditions: cluster in Fig 3A; 30 min capacitation then 30 min with compound
Description: as §1
Cells were capacitated for 30 min at 37°C and 5% CO2. 10 μL assay buffer was dispensed into assay ready plates, plates were put onto a shaker instrument for 30 seconds using 1,000 rpm, followed by a short pulse centrifugation. Plates were incubated for 15–30 mins at 37°C and 5% CO2 prior to addition of 10 μL of pooled cells (at 1 M/mL concentration). This was followed by a 20 min compound incubation step at 37°C and 5% CO2. Plates were then incubated in our CV7000 microscope set at 37°C and 5% CO2 for 10 min prior to imaging. […]
For cell painting imaging data, plates of images were imported into OMERO [70]. […] A median value of all 16 wells was used to calculated percentage change (pct_ch = ((value / DMSO_median) -1) * 100). For sperm viability we calculated fold-change (fc = 1 − (value / DMSO_median)). For each compound we calculated a p-value using a Welch’s t-test implemented in scipy (scipy.stats.ttest_ind) comparing a compounds effect to DMSO controls.

human spermatozoa [6] = experiment: Sperm viability assay (propidium iodide, flow cytometry); format: cell-based; conditions: 3h with compound
Description: In this assay, cells are incubated for 3h with compound in non-capacitating media, prior to viability assessment.
Cells were incubated with compounds for a total of 3h at 37°C. 20 min prior, propidium iodide was added (1.5 mM solution, Sigma, final dilution 1:2000). Plates were analysed using a Satorius iQue Screener with settings to allow for a sampling time of ≤30 min per 384-well plate. Gating of data has been performed using the flow cytometer software to export counts of gated populations. This assay was tested in 5 separate donor pools.
as §2

HeLa = HeLa cell painting cytotoxicity assay; format: cell-based; conditions: 24h compound incubation
Description: The HeLa-based assay uses the cell painting assay [11], while the HepG2 assay utilizes a resazurin based viability read-out [64].
Cell were incubated with compounds for 24h.
• 10 μL of MitoTracker (Life Technologies, M22426, 1 mM stock in DMSO as recommended by the vendor) is added to 50 μL of media (1:2000 final dilution) • Phalloidin-Alexa594 (Life Technologies, A12381, 66 μM stock in methanol as recommended by the vendor, 1:500 final dilution) • WGA-Alexa594 (Life Technologies, W11262, 5 mg/mL stock, 1:250 final dilution) was used • DAPI (5 mg/mL stock; 1:1000 final dilution) was used to stain DNA • 20 μL of staining solution was used • PBS was used for washing steps
For cell painting imaging data, plates of images were imported into OMERO [70]. Cell segmentation and feature extraction were performed using CellProfiler 3 [71] and using instructions from [11] to normalize data.

HepG2 = HepG2 cytotoxicity assay (resazurin based); format: cell-based; conditions: 70h incubation
LRRK2 kinase = conditions: described as; cited from earlier work

In the case of CNS(=O)(=O)c1ccccc1Nc1nc(Nc2ccc(C3CCN(C)CC3)cc2OC)ncc1Cl [Compound 19], the sperm motility (human spermatozoa [1]) is listed as “decrease sperm motility”, the “Published Phenotype” value (spermatozoa) is listed as “Blocks TSSK; similarity to brigatinib” and the TSSK2 inhibition [2] is listed as “potent”.
For COc1cc(C(=O)N2CCC(N3CCN(C)CC3)CC2)ccc1Nc1ncc2c(n1)N(C)c1ccccc1C(=O)N2C [LRRK2-IN-1], the “acrosome reacted cells without agonist cocktail” value (human spermatozoa [3]) was “no change”, the “acrosome reaction (acrosome reacted cells)” value (human spermatozoa [4]) was “significantly increased” and the progressive motility (human spermatozoa [1]; non-capacitating conditions, Fig 2) was “enhances motility”. For the same compound, the hyperactive motility (human spermatozoa [5]) was “significantly increased”, the “effects on sperm viability” value (human spermatozoa [6]) was “do not show effects” and the “general cytotoxicity (HeLa)” value (HeLa) was “do not show effects”. The “general cytotoxicity (HepG2)” value (HepG2) was “do not show effects” and the LRRK2 kinase inhibition (LRRK2 kinase) was “selective inhibitor”.
